Experimental data from patent publication US12172995B2, “Substituted indole and indazole compounds” (BRISTOL-MYERS SQUIBB COMPANY, priority 2018, dated 2024).

Columns and labels:
Format in all cases: cell-based
[1] = target: T1, human TLR7 (Homo sapiens, UniProt Q9NYK1); experiment: TLR7 inhibition reporter assay (HEK-Blue SEAP); conditions: HEK-Blue cells overexpressing human TLR7, stimulated with gardiquimod 7.5 μM, 22 hour incubation
T1 construct: host or cells: HEK-Blue cells
T1 sequence (Q9NYK1 27-1049): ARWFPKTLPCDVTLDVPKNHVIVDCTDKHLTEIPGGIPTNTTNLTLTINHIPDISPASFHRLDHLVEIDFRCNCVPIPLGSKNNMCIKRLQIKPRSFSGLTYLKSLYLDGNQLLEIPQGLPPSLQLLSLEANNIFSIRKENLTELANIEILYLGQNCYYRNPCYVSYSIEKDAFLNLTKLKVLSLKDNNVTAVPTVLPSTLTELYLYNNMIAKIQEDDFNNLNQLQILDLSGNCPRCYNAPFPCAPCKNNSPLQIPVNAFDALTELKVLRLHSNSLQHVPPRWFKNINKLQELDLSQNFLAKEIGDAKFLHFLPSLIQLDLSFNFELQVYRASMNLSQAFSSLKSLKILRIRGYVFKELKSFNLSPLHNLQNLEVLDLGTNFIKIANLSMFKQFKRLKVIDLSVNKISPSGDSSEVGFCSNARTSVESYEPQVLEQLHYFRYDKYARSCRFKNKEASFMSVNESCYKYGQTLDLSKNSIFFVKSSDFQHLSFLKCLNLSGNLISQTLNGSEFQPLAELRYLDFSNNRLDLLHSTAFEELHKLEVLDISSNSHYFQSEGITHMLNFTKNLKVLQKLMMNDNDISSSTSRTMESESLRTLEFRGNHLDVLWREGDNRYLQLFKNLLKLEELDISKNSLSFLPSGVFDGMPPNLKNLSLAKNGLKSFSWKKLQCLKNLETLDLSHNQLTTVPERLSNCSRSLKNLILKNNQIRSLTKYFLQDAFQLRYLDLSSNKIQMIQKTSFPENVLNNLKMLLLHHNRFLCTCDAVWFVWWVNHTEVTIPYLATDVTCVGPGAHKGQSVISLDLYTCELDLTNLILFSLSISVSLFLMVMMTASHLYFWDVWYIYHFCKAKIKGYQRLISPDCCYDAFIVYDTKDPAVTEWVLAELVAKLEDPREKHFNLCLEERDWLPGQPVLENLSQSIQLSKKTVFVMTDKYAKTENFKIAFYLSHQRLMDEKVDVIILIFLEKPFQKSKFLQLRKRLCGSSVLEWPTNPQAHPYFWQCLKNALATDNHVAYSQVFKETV
Outline: (§1)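 Percent inhibition reflects SEAP reduction after 22 h at 37° C, relative to agonist-plus-DMSO and known-inhibitor controls. Compounds (0.05 nM to 50 μM) were added 30 min before agonist: TLR9 cells received ODN2006 5 nM, TLR8 cells R848 15.9 μM, TLR7 cells gardiquimod 7.5 μM; human receptor-expressing HEK-Blue reporter lines.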

[2] = target: T2, human TLR8 (Homo sapiens, UniProt Q9NR97); experiment: TLR8 inhibition reporter assay (HEK-Blue SEAP); conditions: HEK-Blue cells overexpressing human TLR8, stimulated with R848 15.9 μM, 22 hour incubation
T2 construct: host or cells: HEK-Blue cells
T2 sequence (Q9NR97 27-1041): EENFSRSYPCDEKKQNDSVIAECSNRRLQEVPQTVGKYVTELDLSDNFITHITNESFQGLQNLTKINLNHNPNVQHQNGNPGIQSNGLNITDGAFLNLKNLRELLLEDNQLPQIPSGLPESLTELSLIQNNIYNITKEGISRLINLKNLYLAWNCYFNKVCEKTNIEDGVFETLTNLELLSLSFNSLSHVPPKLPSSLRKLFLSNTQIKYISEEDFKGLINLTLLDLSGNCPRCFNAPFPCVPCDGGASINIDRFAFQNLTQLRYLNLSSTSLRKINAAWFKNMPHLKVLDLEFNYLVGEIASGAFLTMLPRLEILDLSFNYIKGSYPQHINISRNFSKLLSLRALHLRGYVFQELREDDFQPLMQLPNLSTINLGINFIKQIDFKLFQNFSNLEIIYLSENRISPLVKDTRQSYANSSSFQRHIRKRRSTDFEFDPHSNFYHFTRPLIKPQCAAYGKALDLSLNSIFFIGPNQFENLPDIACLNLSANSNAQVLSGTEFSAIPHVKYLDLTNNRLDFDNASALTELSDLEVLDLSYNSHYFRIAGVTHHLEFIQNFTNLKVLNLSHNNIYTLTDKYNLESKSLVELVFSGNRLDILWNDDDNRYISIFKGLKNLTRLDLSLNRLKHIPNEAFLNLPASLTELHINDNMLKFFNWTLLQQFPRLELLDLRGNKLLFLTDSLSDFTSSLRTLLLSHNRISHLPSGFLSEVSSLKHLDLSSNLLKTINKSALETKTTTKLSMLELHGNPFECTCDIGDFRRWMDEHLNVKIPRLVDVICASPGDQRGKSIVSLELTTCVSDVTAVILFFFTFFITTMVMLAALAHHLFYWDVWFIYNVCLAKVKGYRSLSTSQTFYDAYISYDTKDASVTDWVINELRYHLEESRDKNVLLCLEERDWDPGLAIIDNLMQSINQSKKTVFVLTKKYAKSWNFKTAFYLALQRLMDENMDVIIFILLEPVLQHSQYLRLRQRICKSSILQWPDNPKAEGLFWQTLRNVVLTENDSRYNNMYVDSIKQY
Outline: as §1

[3] = target: T3, human TLR9 (Homo sapiens, UniProt Q9NR96); experiment: TLR9 inhibition reporter assay (HEK-Blue SEAP); conditions: HEK-Blue cells overexpressing human TLR9, stimulated with ODN2006 5 nM, 22 hour incubation
T3 construct: host or cells: HEK-Blue cells
T3 sequence (Q9NR96 26-1032): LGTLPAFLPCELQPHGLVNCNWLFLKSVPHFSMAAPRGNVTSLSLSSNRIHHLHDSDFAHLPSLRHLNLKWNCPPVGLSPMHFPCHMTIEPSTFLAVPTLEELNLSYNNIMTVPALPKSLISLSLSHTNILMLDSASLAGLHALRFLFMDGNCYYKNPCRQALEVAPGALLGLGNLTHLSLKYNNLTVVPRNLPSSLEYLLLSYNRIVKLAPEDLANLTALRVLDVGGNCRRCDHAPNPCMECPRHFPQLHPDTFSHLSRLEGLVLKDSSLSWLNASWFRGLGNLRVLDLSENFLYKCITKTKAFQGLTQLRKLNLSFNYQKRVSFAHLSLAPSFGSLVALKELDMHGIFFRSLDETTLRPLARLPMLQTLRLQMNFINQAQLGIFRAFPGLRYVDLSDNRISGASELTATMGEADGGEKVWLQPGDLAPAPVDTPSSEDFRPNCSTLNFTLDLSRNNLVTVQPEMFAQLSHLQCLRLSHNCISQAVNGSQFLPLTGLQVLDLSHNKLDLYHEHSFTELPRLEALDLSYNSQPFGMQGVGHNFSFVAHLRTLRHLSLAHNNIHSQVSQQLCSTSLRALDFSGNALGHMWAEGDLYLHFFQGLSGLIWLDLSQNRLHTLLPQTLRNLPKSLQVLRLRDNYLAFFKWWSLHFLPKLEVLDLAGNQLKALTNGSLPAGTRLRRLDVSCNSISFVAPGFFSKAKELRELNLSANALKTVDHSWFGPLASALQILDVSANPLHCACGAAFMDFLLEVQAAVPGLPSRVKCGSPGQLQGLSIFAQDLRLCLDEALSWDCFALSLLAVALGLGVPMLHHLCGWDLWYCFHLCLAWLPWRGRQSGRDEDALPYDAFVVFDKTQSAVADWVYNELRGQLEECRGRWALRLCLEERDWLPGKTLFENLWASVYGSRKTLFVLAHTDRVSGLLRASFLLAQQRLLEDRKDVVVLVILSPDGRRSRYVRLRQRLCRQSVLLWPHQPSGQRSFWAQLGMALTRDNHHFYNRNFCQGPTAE
Outline: as §1

COc1cc(-c2cc3[nH]nc(C4CCC(N5CC(OC)C5)CC4)c3cc2C(C)C)cn2ncnc12 (single isomer, unassigned) [Example 147, 6-(5-isopropyl-3-(4-(3-methoxyazetidin-1-yl)cyclohexyl)-1H-indazol-6-yl)-8-methoxy-[1,2,4]triazolo[1,5-a]pyridine] showed an IC50 [1] of 0.4 nM, an IC50 [2] of 0.2 nM and an IC50 [3] of 13100 nM.
COc1cc(-c2cc3[nH]nc(C4CCC(N5CC(OC)C5)CC4)c3cc2C(C)C)cn2ncnc12 (single isomer, unassigned) [Example 148, 6-(5-isopropyl-3-(4-(3-methoxyazetidin-1-yl)cyclohexyl)-1H-indazol-6-yl)-8-methoxy-[1,2,4]triazolo[1,5-a]pyridine] showed an IC50 [1] of 1.3 nM, an IC50 [2] of 31.3 nM and an IC50 [3] of 6450 nM.
Compound CCOC1CN(C2CCC(c3n[nH]c4cc(-c5cc(C)c6ncnn6c5)c(C(C)C)cc34)CC2)C1 (single isomer, unassigned) [Example 149, 6-(3-(4-(3-ethoxyazetidin-1-yl)cyclohexyl)-5-isopropyl-1H-indazol-6-yl)-8-methyl-[1,2,4]triazolo[1,5-a]pyridine] has an IC50 [1] of 0.8 nM, an IC50 [2] of 0.4 nM and an IC50 [3] of 7480 nM.
CCOC1CN(C2CCC(c3n[nH]c4cc(-c5cc(C)c6ncnn6c5)c(C(C)C)cc34)CC2)C1 (single isomer, unassigned) [Example 150, 6-(3-(4-(3-ethoxyazetidin-1-yl)cyclohexyl)-5-isopropyl-1H-indazol-6-yl)-8-methyl-[1,2,4]triazolo[1,5-a]pyridine] showed an IC50 [1] of 1.7 nM, an IC50 [2] of 0.1 nM and an IC50 [3] of 6910 nM.
Work on Cc1cc(-c2cc3[nH]nc(C4CCC(N5CC(OC(C)C)C5)CC4)c3cc2C(C)C)cn2ncnc12 (single isomer, unassigned) [Example 161, 6-(3-(4-(3-isopropoxyazetidin-1-yl)cyclohexyl)-5-isopropyl-1H-indazol-6-yl)-8-methyl-[1,2,4]triazolo[1,5-a]pyridine] yielded an IC50 [1] of 6.4 nM, an IC50 [2] of 0.5 nM and an IC50 [3] of 8400 nM.
For Cc1cc(-c2cc3[nH]nc(C4CCC(N5CC(OC(C)C)C5)CC4)c3cc2C(C)C)cn2ncnc12 (single isomer, unassigned) [Example 162, 6-(3-(4-(3-isopropoxyazetidin-1-yl)cyclohexyl)-5-isopropyl-1H-indazol-6-yl)-8-methyl-[1,2,4]triazolo[1,5-a]pyridine], the IC50 [1] was 1.5 nM, the IC50 [2] was 0.7 nM and the IC50 [3] was 8540 nM.
With Cc1cc(-c2cc3[nH]nc(C4CCC(N5CCC(C)(O)C5)CC4)c3cc2C(C)C)cn2ncnc12 (single isomer, unassigned) [Example 166, 1-(4-(5-isopropyl-6-(8-methyl-[1,2,4]triazolo[1,5-a]pyridin-6-yl)-1H-indazol-3-yl)cyclohexyl)-3-methylpyrrolidin-3-ol] the IC50 [1] was 4.2 nM, the IC50 [2] was 0.2 nM and the IC50 [3] was 8900 nM.
CCc1cc(-c2cc(C)c3ncnn3c2)cc2[nH]nc(OC3CCC(N(C)C)CC3)c12 (single isomer, unassigned) [Example 168, 4-((4-ethyl-6-(8-methyl-[1,2,4]triazolo[1,5-a]pyridin-6-yl)-1H-indazol-3-yl)oxy)-N,N-dimethylcyclohexan-1-amine] showed an IC50 [1] of 1.9 nM, an IC50 [2] of 1.6 nM and an IC50 [3] of 2570 nM.
CCc1cc(-c2cc(C)c3ncnn3c2)cc2[nH]nc(OC3CCC(N(C)C)CC3)c12 (single isomer, unassigned) [Example 169, 4-((4-ethyl-6-(8-methyl-[1,2,4]triazolo[1,5-a]pyridin-6-yl)-1H-indazol-3-yl)oxy)-N,N-dimethylcyclohexan-1-amine] showed an IC50 [1] of 1.2 nM, an IC50 [2] of 0.5 nM and an IC50 [3] of 1830 nM.
Cc1cc(-c2cc(C)c3ncnn3c2)cc2[nH]nc(OC3CCC(N(C)C)CC3)c12 (single isomer, unassigned) [Example 179, N,N-dimethyl-4-((4-methyl-6-(8-methyl-[1,2,4]triazolo[1,5-a]pyridin-6-yl)-1H-indazol-3-yl)oxy)cyclohexan-1-amine] was tested, and the IC50 [1] was 3.3 nM, the IC50 [2] was 8.5 nM and the IC50 [3] was 2080 nM.
Cc1cc(-c2cc(C)c3ncnn3c2)cc2[nH]nc(OC3CCC(N(C)C)CC3)c12 (single isomer, unassigned) [Example 180, N,N-dimethyl-4-((4-methyl-6-(8-methyl-[1,2,4]triazolo[1,5-a]pyridin-6-yl)-1H-indazol-3-yl)oxy)cyclohexan-1-amine] was tested, and the IC50 [1] was 2.6 nM, the IC50 [2] was 2.3 nM and the IC50 [3] was 3260 nM.
Compound Cc1cc2c(OC3CCC(N(C)C)CC3)n[nH]c2cc1-c1cc(C)c2ncnn2c1 (single isomer, unassigned) [Example 181, N,N-dimethyl-4-((5-methyl-6-(8-methyl-[1,2,4]triazolo[1,5-a]pyridin-6-yl)-1H-indazol-3-yl)oxy)cyclohexan-1-amine] has an IC50 [1] of 71.7 nM, an IC50 [2] of 19.9 nM and an IC50 [3] of no less than 50000 nM.
